Reference: patent US5912245A, “Acid amide derivatives and process for the preparation thereof” (Egis Gyogyszergyar RT., priority 1994, dated 1999)
Entries after “also recorded” stand apart in the source; their conditions may differ.

How the values were obtained:
AMPA = settings: cited from earlier work
[1] = target: NMDA (CGS 19755 receptor); assay: Selectivity: CGS 19755 receptor binding test
Experimental: The experiment was carried out according to the method of Foster et al. [A. Foster and E. H. F. Wong: Brit.

kainate recognition site = assay: ^3H-kainate binding (radioligand competitive binding assay); set-up: species or system rat; settings: compared with DNQX
Experimental: (§1) 1. ^3 H-AMPA and ^3 H-kainate binding (radioligand competitive binding assay)
(§2) The experiment was carried out according to the method of Murphy et al. [D. E. Murphy, E. W. Snowhill, M. Williams: Neurochem. Res. 12, 775-782 (1987)] using a membrane specimen isolated from rat brain. The binding of kainate labeled with tritium on a rat cortex specimen was measured according to the method of Honore et al. [T. Honore, J. Dejer and M. Nielsen: Neurosci. Lett. 65, 48-52 (1986)].

AMPA recognition site = assay: ^3H-AMPA binding (radioligand competitive binding assay); set-up: species or system rat; settings: compared with DNQX
Experimental: as §1, §2

AMPA and kainate = AMPA and kainate antagonism (overall conclusion from the binding and selectivity tests)
Experimental: as §2
The experiment was carried out according to the method of Foster et al. [A. Foster and E. H. F. Wong: Brit. J. Pharmacol. 91, 403-409, (1987)]. When applying the CGS 19755 receptor binding test the method of Murphy et al. [D. E. Murphy, A. J. Hutchison, S. D. Hurt, M. Williams and M. A. Sills: Brit. J. Pharmacol. 95, 932-938 (1988)] was applied.

Row | SMILES | AMPA antagonizing property, in words (AMPA) | Binding of ^3H-CGS-19755 Ki [1] | displacement of labeled kainate, in words (kainate recognition site) | displacement of labeled AMPA, in words (AMPA recognition site) | AMPA and kainate antagonism, in words (AMPA and kainate)
1 | N#Cc1cc2[nH]c(=O)c(=O)[nH]c2cc1[N+](=O)[O-] [CNQX, 6-cyano-7-nitro-quinoxaline-2,3-dione] | selective AMPA antagonizing property |  |  |  | 
2 | O=c1[nH]c2cc([N+](=O)[O-])c([N+](=O)[O-])cc2[nH]c1=O [DNQX, 6,7-dinitroquinoxaline-2,3-dione, reference compound] | selective AMPA antagonizing property | does not "converge" |  |  | 
3 | O=c1[nH]c2cc([N+](=O)[O-])c(S(=O)(=O)NCCN3CCCCC3)cc2[nH]c1=O [Example 17, 1,2,3,4-Tetrahydro-7-nitro-2,3-dioxo-N-(2-piperidinoethyl)-6-quinoxaline sulfonamide] |  | not "converge" | affinity similar to that of DNQX; also recorded: good reversible ligand | affinity similar to that of DNQX; also recorded: good reversible ligand | selective AMPA and kainate antagonists
4 | O=c1[nH]c2cc([N+](=O)[O-])c(S(=O)(=O)N(CCO)CCO)cc2[nH]c1=O [Example 24, N,N-bis(2-Hydroxyethyl)-1,2,3,4-tetrahydro-7-nitro-2,3-dioxo-6-quinoxaline sulfonamide] |  | does not "converge" |  |  | selective AMPA and kainate antagonists
